Reference: article PMC9313321 (Biomedicines, 2022)
Entries after “also recorded” stand apart in the source; their conditions may differ.

Assays:
SH-SY5Y cells [1] = assay: Neuroprotection against Fe/Ascorbate toxicity (MTT reduction); format: cell-based, human; details: 1 h pre-incubation + 24 h with Fe 2.5 mM/Asc 5 mM, 5a at 2 µM
Procedure: (§1) SH-SY5Y human neuroblastoma cells (ATCC-CRL-2266) were kept in culture using Dulbecco’s Modified Eagle Medium (DMEM) (Gibco-Invitrogen, Life Technologies Ltd., Waltham, MA, USA) containing 10% heat-inactivated fetal bovine serum (FBS), 50 U mL^−1 penicillin and 50 μg mL^−1 streptomycin. Incubation of the cells occurred at 37 °C in 5% CO2. The toxicity of the compounds was tested through cell viability assays, with cells seeded with a density of 0.24 × 10^6 cells mL^−1. DMSO was used to dissolve each tested compound (4a–4d, 5a, 5b), affording stock solutions with concentrations of 25 mM. Aliquots of these solutions were stored at −20 °C. Concentrations from 1 μM to 10 μM were screened in order to select the highest non-toxic concentration of each compound. Consequently, compounds 4a, 4b and 5b were tested at 1 μM final concentration; compounds 4c and 5a were tested at 2 μM final concentration; compound 4d was tested at a final concentration of 3 μM. The DMSO concentrations in the culture media were lower than 0.05% (v/v) and the viability of the SH-SY5Y cells was not altered in a detectable manner. […]
(§2) The colorimetric MTT (3-(4,5-dimethylthiazol-2-yl)-2,5-diphenyltetrazolium bromide) reduction assay was used to determine cell viability. […] The absorbance of each well was measured at 570 nm. […]
(§3) All data were expressed as means ± SEMs of at least five independent experiments performed in duplicate. […]

SH-SY5Y cells [2] = assay: Neuroprotection against Aβ42-induced toxicity (MTT reduction); format: cell-based, human; details: 1 h pre-incubation + 24 h with Aβ42 1 µM, 4d at 3 µM
Procedure: as §1, §2, §3

CCN(C)C(=O)Oc1cccc(NC(=O)c2cccc3[nH]c(-c4ccccc4O)nc23)c1 [Compound 5a, 3-(2-(2-Hydroxyphenyl)-1H-benzo[d]imidazole-4-carboxamido)phenyl Ethylmethylcarbamate]
Neuroprotective effect against Fe/Ascorbate toxicity (cell viability, MTT) (SH-SY5Y cells [1]): statistically significant neuroprotective effect; also recorded: best neuroprotective capacities

CCN(C)C(=O)Oc1ccc(CCCNC(=O)c2ccc3nc(-c4ccccc4O)[nH]c3c2)cc1 [Compound 4d, 4-(3-(2-(2-Hydroxyphenyl)-1H-benzo[d]imidazole-6-carboxamido)propyl) Phenyl Ethylmethylcarbamate]
Neuroprotective effect against Aβ42-induced toxicity (cell viability, MTT) (SH-SY5Y cells [2]): significantly prevented Aβ-induced cell toxicity; also recorded: best neuroprotective capacities
